From patent publication US6569446B1, “Solubilization of flavonols” (The Howard Foundation, priority 1996, dated 2003)
Values after ≈ are worked out from the molar mass of the structure shown.

What was measured:
[1] = ileostomy subjects (Hollman et al 1995); cited from earlier work
[2] = Solubilization of quercetin in aqueous malvin chloride by addition of ethanol solution of quercetin (Example 5); type: physicochemical
Procedure: The anthocyanins can be divided into two major classes: the monomeric anthocyanins and the polymeric anthocyanins. A typical example of a monomeric anthocyanin is malvin chloride, a salt of the oxonium ion malvidin-3-glucose and the chloride ion. It can be obtained in a high state of purity (Indofine Inc, USA) and therefore used to determine the solubilizing effect of an anthocyanin monomer. The procedure was as follows: malvin chloride (2.2 mg) was dissolved in 2 ml citrate buffer (pH 3.0)—one ml acted as a control. […] Equal amounts of ethanol were added to the control. Each solution was diluted (1:9) with 5% aqueous ethanol and the optical density determined at 275 nm.

physchem [3] = type: physicochemical; conditions: 20 °C, aqueous with cosolvent or surfactant or cyclodextrin, kinetic from dmso stock
Procedure: The procedure used was as follows: anthocyanin powder was dissolved in deionised water to give concentrations of 0.625, 1.25, 2.5, 10 and 20 mg/ml. […] The mixtures were allowed to stand for 20 to 30 min and then centrifuged at 2000×g for 30 min at 20° C. The optical densities were measured at 258 nm and 375 nm as in Example 1. To 5 ml of each corresponding anthocyanin solution was added the same volume of ethanol determined above to give a precipitate, and the optical densities measured. […] The control was water.
Since quercitin is more soluble in aqueous ethanol than water a further series of controls were prepared in which quercetin in ethanol was added to water in amounts corresponding to those used in the test, and the solubilities likewise determined. […] To solubilize quercetin more anthocyanin was needed than quercetin w/w.

[4] = Solubility of solid quercetin mixed with liquids at room temperature (Example 3); type: physicochemical; conditions: 20 °C, thermodynamic from solid, Room temp
physchem [5] = type: physicochemical; conditions: thermodynamic from solid
Procedure: Quercetin is a flavonol aglycone. In fruit juices it exists as the glycoside. The purpose of the investigation was to examine the solubilization of glycosides of flavonols by anthocyanins. […] Samples were diluted in water 1:9 before reading. Aliquots of anthocyanin and water with and without the flavonol were treated similarly.
The same procedure was used for measuring the solubility of the flavonols in malvin chloride. In this case 1.8 mg malvin chloride was dissolved in 2.0 ml citrate buffer at pH3. To 1 ml was added 2 mg of the flavonol, the other 1 ml acted as a control. After heating, the mixture was cooled to room temperature, centrifuged, and the supernatant diluted 1:9 with 50% aqueous ethanol. The optical densities were measured at 375 nm.

[6] = Solubility of solid quercetin in liquids after heating to boiling in microwave oven (Example 3); type: physicochemical; conditions: 20 °C, thermodynamic from solid
Procedure: To investigate dissolution by heat, the liquids were heated in a sealed tube for 1 min in a microwave oven (when boiling of the liquid occurred) and cooled to room temperature.

[7] = aqueous with cosolvent or surfactant or cyclodextrin
[8] = pH 3, aqueous with cosolvent or surfactant or cyclodextrin

Structure (SMILES)	absorption [1] [%]	solubility ([2]; 20% v/v ethanol, aqueous with cosolvent or surfactant or cyclodextrin, ethanol 20% v/v, without malvin chloride) [µg/mL]	Solubility of quercetin in presence of malvin chloride ([2]; citrate buffer pH 3.0, 20% v/v ethanol, possibly super saturated)	quercetin added to 1 ml malvin chloride with no precipitate ([2]; malvin chloride 1.1 mg/ml in citrate buffer pH 3.0, quercetin added in ethanol, slight precipitate at 1000 μg) [µg]	solubility (physchem [3]) [µg/mL]	solubility (physchem [3]; Solubility of quercetin, 20 mg grape anthocyanin powder/ml, in a 22% ethanol solution) [µg/mL]	solubility at 3 h ([4]; aqueous with cosolvent or surfactant or cyclodextrin, Ethanol 12% v/v) [µg/mL]	solubility at 3 h ([4]; aqueous with cosolvent or surfactant or cyclodextrin, Red wine Cabernet-Sauvignon (F)) [µg/mL]	solubility at 3 h ([4]; aqueous with cosolvent or surfactant or cyclodextrin, grape Anthocyanin powder 1 g/L in water) [µg/mL]	solubility at 3 h ([4]; Water, OD 375 nm) [µg/mL]	solubility at 1 min (physchem [5]; [7]) [µg/mL]	solubility at 1 min (physchem [5]; [8]) [µg/mL]	solubility at 1 min (physchem [5]; water) [µg/mL]	solubility at 1 min ([6]; aqueous with cosolvent or surfactant or cyclodextrin, Boiling, Rosé D'Anjou (F)) [µg/mL]	solubility at 1 min ([6]; water, Solubility of quercetin) [µg/mL]
O=c1c(O)c(-c2ccc(O)c(O)c2)oc2cc(O)cc(O)c12 [quercetin]	25	13 (≈ 43 µM)	extremely soluble	750	13 (≈ 43 µM)	75 (≈ 248 µM)	1 (≈ 3.31 µM)	3 (≈ 9.93 µM)	0.7 (≈ 2.32 µM)	0.3 (≈ 0.993 µM)	90 (≈ 298 µM)	28 (≈ 92.6 µM)	2 (≈ 6.62 µM)	9 (≈ 29.8 µM)	2 (≈ 6.62 µM)
C[C@@H]1O[C@@H](Oc2c(-c3ccc(O)c(O)c3)oc3cc(O)cc(O)c3c2=O)[C@H](O)[C@H](O)[C@H]1O [Quercitrin, quercetin 3-L-rhamnoside]	–	–	–	–	–	–	–	–	–	–	316 (≈ 705 µM)	127 (≈ 283 µM)	53 (≈ 118 µM)	–	–
C[C@@H]1O[C@@H](OC[C@H]2O[C@@H](Oc3c(-c4ccc(O)c(O)c4)oc4cc(O)cc(O)c4c3=O)[C@H](O)[C@@H](O)[C@@H]2O)[C@H](O)[C@H](O)[C@H]1O [Rutin, quercetin 3β-D-rutinoside hydrate]	–	–	–	–	–	–	–	–	–	–	260	74	36	–	–
